# Measurements reported in ChEMBL document CHEMBL1133325, “Synthesis and biological activity of fluoro-substituted pyrrolo[2,3-d]pyrimidines: the development of potential positron emission tomography imaging agents for the corticotropin-releasing hormone type 1 receptor” (Bioorg Med Chem Lett, 2000).
# Molecular target: T1, Corticotropin-releasing factor receptor 1 (Rattus norvegicus, UniProt P35353)
# T1 sequence (P35353 whole entry): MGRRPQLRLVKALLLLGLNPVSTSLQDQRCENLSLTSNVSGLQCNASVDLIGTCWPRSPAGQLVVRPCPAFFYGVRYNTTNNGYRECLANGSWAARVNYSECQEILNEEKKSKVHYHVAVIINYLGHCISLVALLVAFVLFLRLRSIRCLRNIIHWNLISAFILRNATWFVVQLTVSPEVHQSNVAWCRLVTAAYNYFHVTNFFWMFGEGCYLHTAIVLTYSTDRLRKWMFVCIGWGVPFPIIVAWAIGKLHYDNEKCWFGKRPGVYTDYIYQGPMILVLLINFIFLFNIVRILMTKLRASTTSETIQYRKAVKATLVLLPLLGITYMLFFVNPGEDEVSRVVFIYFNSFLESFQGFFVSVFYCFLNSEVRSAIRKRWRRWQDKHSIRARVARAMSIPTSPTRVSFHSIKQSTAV
# Experiment: Compound was tested in vitro for its ability to displace [125 I]Tyr-sauvagine from corticotropin-releasing hormone type 1 receptor in rat cerebellum
# Assay type: tissue-based
row,SMILES,Ki
1,CCCN(CCCCF)c1nc(C)nc2c1c(C)c(C)n2-c1c(C)cc(C)cc1C,0.91 nM
2,Cc1cc(C)c(-n2c(C)c(C)c3c(N(CCCF)CC4CC4)nc(C)nc32)c(C)c1,30 nM
3,CCCCN(CCCCF)c1nc(C)nc2c1c(C)c(C)n2-c1c(C)cc(C)cc1C,10 nM
4,Cc1cc(C)c(-n2c(C)c(C)c3c(N4CCN(CCF)CC4)nc(C)nc32)c(C)c1,> 1000 nM
5,CCCN(CC1CC1)c1nc(C)nc2c1c(C)c(C)n2-c1c(C)cc(C)cc1C,2.3 nM
6,CCN(CCCCF)c1nc(C)nc2c1c(C)c(C)n2-c1c(C)cc(C)cc1C,3.5 nM
7,CCCCN(CC)c1nc(C)nc2c1c(C)c(C)n2-c1c(C)cc(C)cc1C [ANTALARMIN],2.5 nM
